According to patent US20100121108A1, “PROCESS FOR SYNTHESIZING DESVENLAFAXINE FREE BASE AND SALTS OR SOLVATES THEREOF” (MEDICHEM, S.A., priority 2006, published 2010):

Key:
[1] = BET specific surface area (Micromeritics ASAP2010, N2 adsorption); type: physicochemical; conditions: N2 at 77.3 K
Experimental: The BET (Brunauer, Emmett and Teller) specific surface area for desvenlafaxine succinate was measured using a Micromeritics ASAP2010 equipment. Samples for analysis were degassed at 30° C.-70° C. under vacuum for about two hours. The determination of the adsorption of N2 at 77.3° K was measured for relative pressures in the range of 0.05-0.3 for a weighed amount of desvenlafaxine succinate (i.e., approximately 0.5 g).

[2] = Particle size by Malvern Mastersizer S (volume distribution); type: physicochemical
Experimental: The particle size for desvenlafaxine succinate was measured using a Malvern Mastersizer S particle size analyzer with an MS1 Small Volume Sample Dispersion Unit stirred cell. A 300RF mm lens and a beam length of 2.4 mm were used. Samples for analysis were prepared by dispersing a weighed amount of desvenlafaxine succinate (approximately 0.1 g) in 20 mL of Lecithin Solution, previously prepared by dilution of 1.5 g of Soybean Lecithin to 200 mL of Isopar G. Mix gently until Lecithin dissolves (Lecithin solution). If it is necessary the solution can be sonicated. The suspension was delivered drop-wise to a background corrected measuring cell previously filled with dispersant (Isopar G) until the obscuration reached the desired level. Volume distributions were obtained for three times. Before and after the analysis, purge the sample and flush the MS1 unit with ethanol twice and with the dispersant at least three times. For characterization, the values of D10, D50 and D90 (by volume) were specifically listed, each one being the mean of the […] values available for each characterization parameter.

[3] = milled and sieved desvenlafaxine succinate

surface area [1]: 0.8457±0.0039 m^2/g | surface area ([1]; listed as Desvenlafaxine succinate): approximately 0.8457±0.0039 m^2/g | D50 (v) particle size [2, 3]: approximately 41 μm | D90 (v) particle size [2, 3]: approximately 155 μm | D10 (v) particle diameter less than ([2]; summary statement): approximately 4 μM
SMILES: CN(C)CC(c1ccc(O)cc1)C1(O)CCCCC1 (centres unmarked) [desvenlafaxine succinate]
